One data set relates to U937 (Monocytic). In words: Anti-proliferation in U937 cells. The format is cell-based, human. The conditions noted are these: U937 (Monocytic), 3 days incubation, read-out: Anti-Proliferation EC50.
Another data set concerns CEM (T-lymphoid). Nature of the data set: Anti-proliferation in CEM cells. The format is cell-based, human. The note with it: CEM (T-lymphoid), 3 days incubation, read-out: Anti-Proliferation EC50.
Data set [1] has as its system PWM-blast (human B-cells). In words: Anti-proliferation in human PWM-lymphoblasts (BrdU/XTT). The format is cell-based. The conditions noted are these: B-cell, 72 h, 3 days incubation. On the technique in general: Tetrazolium dyes change colour on reduction, which living cells bring about.
The next data set deals with Daudi (B-lymphoid). In words: Anti-proliferation in Daudi cells. The class given is cell-based, human. The note with it: 3 days incubation.
A further data set deals with KG-1 (Myeloid). Nature of the data set: Anti-proliferation in KG-1 cells. The format is cell-based, human. The note with it: KG-1 (Myeloid), 3 days incubation, read-out: Anti-Proliferation EC50.
A further data set deals with PM-1 (T-lymphoid). In words: Anti-proliferation in PM-1 cells. The format is cell-based, human. The conditions noted are these: PM-1 (T-lymphoid), 3 days incubation, read-out: Anti-Proliferation EC50.
The test system of data set [2] is lymphoblasts and leukemia/lymphoma cell lines. In words: Anti-proliferation, EC50 range over the cell panel. The class given is cell-based. The note with it: range over a variety of lymphoblasts and leukemia/lymphoma cell lines. As for the experimental part: A variety of compounds that are used for treatment of hematologic malignancies were also tested, including a DNA polymerase inhibitor (ara-C), DNA polymerase/ribonucleotide reductase inhibitors (cladribine, clofarabine, fludarabine, gemcitabine), an adenosine deaminase inhibitor (deoxycoformycin), a DNA methylation inhibitor (decitabine), a […] (doxorubicin), and a mitosis inhibitor (vincristine). All compounds, with the exception of doxorubicin and vincristine, are nucleoside analogs; ara-C, gemcitabine, and decitabine are cytosine analogs and the rest are adenosine analogs. cpr-PMEDAP and PMEG can be considered adenosine and guanosine analogs, respectively. Compounds were tested using human and canine lymphoblasts (stimulated with a T-cell mitogen phytohaemagglutinin (PHA) or a B-cell mitogen pokeweed mitogen (PWM)), two T-lymphoid cell lines derived from patients with acute lymphocytic leukemia (CEM and Molt-4), two myeloid cell lines derived from patients with acute myelogenous leukemia (KG-1 and HL-60), two B-lymphoid cell lines derived from Burkitt's lymphoma (Daudi and Raji), a B-lymphoid cell line from non-Hodgkin's lymphoma (RL), a T-lymphoid cell line from cutaneous T-lymphoma (PM-1), and a monocytic cell line from histiocytic lymphoma (U937).
Lymphoblasts (150,000 cells per microtiter well) and leukemia/lymphoma cell lines (30,000 cells per well) were incubated with 5-fold serial dilutions of compounds for 3 days. BrdU assay was performed as follows: Lymphoblasts were incubated with 5-fold serial dilutions of compounds in microtiter plates (150,000 cells per well) for 3 days. On Day 3, cells were labeled with 10 μM BrdU for 3 hrs and the amount of BrdU incorporated into cellular DNA was quantified by Enzyme-Linked Immunosorbent Assay (ELISA). Alternatively, cells were incubated with 1 mg/mL XTT reagent (sodium 3,3′-[1[(phenylamino) carbonyl]-3,4-tetrazolium]-bis(4-methoxy-6-nitro) benzene sulfonic acid hydrate) and 1% PMS (phenazine methosulfate) for 2 hrs, and color change (mitochondrial dehydrogenase reduces yellow-colored XTT to orange-colored formazan salt) was quantified. […] Assays were repeated 2-20 times, until the standard error of the mean (SEM) became smaller than 50% of the mean value.

The next data set has as its system RL (B-lymphoid). In words: Anti-proliferation in RL cells. The note with it: Homo sapiens, 72 h, 3 days incubation. The class given is cell-based.
Data set [3] concerns PHA-blast (canine T-cells). In words: Anti-proliferation in canine PHA-lymphoblasts (BrdU/XTT). The class given is cell-based. The note with it: Canis lupus familiaris, T-cell, 72 h, 3 days incubation.
The test system of another data set is Raji (B-lymphoid). In words: Anti-proliferation in Raji cells. The class given is cell-based, human. The note with it: Homo sapiens, 72 h, 3 days incubation.
Data set [4] deals with PHA-blast (human T-cells). Nature of the data set: Anti-proliferation in human PHA-lymphoblasts (BrdU/XTT). The conditions noted are these: PHA-blast (human T-cells), 3 days incubation, read-out: Anti-Proliferation EC50. The class given is cell-based.
The nature of a further data set: Hygroscopicity. The format is physicochemical.
The subject of a further data set is Molt 4 (T-lymphoid). In words: Anti-proliferation in Molt 4 cells. The note with it: Molt 4 (T-lymphoid), 3 days incubation, read-out: Anti-Proliferation EC50. The class given is cell-based, human.
The subject of another data set is HL-60 (Myeloid). In words: Anti-proliferation in HL-60 cells. The class given is cell-based, human. The note with it: HL-60 (Myeloid), 3 days incubation, read-out: Anti-Proliferation EC50.
For data set [5], the system named is PWM-blast (canine B-cells). Nature of the data set: Anti-proliferation in canine PWM-lymphoblasts (BrdU/XTT). The conditions noted are these: Canis lupus familiaris, B-cell, 72 h, 3 days incubation. The format is cell-based.
Data set [6] has as its system a variety of tumor cell lines. The conditions noted are these: in vitro cell culture; cited from earlier work.

pEC50: −log10 of the molar value. Read-outs that look alike come from different tables or passages of the source.

Experimental for CEM (T-lymphoid): (§1) Compounds were tested using human and canine lymphoblasts (stimulated with a T-cell mitogen phytohaemagglutinin (PHA) or a B-cell mitogen pokeweed mitogen (PWM)), two T-lymphoid cell lines derived from patients with acute lymphocytic leukemia (CEM and Molt-4), two myeloid cell lines derived from patients with acute myelogenous leukemia (KG-1 and HL-60), two B-lymphoid cell lines derived from Burkitt's lymphoma (Daudi and Raji), a B-lymphoid cell line from non-Hodgkin's lymphoma (RL), a T-lymphoid cell line from cutaneous T-lymphoma (PM-1), and a monocytic cell line from histiocytic lymphoma (U937). Lymphoblasts (150,000 cells per microtiter well) and leukemia/lymphoma cell lines (30,000 cells per well) were incubated with 5-fold serial dilutions of compounds for 3 days.
Experimental for Daudi (B-lymphoid): as §1
Experimental for HL-60 (Myeloid): as §1
Experimental for KG-1 (Myeloid): as §1
Experimental for Molt 4 (T-lymphoid): as §1
Experimental for PM-1 (T-lymphoid): as §1
Experimental for RL (B-lymphoid): as §1
Experimental for Raji (B-lymphoid): as §1

Consider `CCOC(=O)C(C)NP(=O)(COCCn1cnc2c(NC3CC3)nc(N)nc21)NC(C)C(=O)OCC` (stereo not drawn) [Compound 1], for which the pEC50 with U937 (Monocytic) (Homo sapiens, U-937, 72 h) was 6.40; in the data set with CEM (T-lymphoid) (Homo sapiens, 72 h), 6.81; in data set [1], 7.38; with Daudi (B-lymphoid) (Homo sapiens, 72 h), 7.57; in the data set on KG-1 (Myeloid) (Homo sapiens, 72 h) it was 5.98; with PM-1 (T-lymphoid) (Homo sapiens, 72 h), 6.90. The pEC50 was 5.98 to 7.57 in data set [2]; 7.11 in the data set on RL (B-lymphoid); 7.52 in data set [3]; 7.05 in the data set with Raji (B-lymphoid); 6.87 in data set [4] (T-cell, 72 h); 7.56 in the data set on Molt 4 (T-lymphoid) (Homo sapiens, 72 h). Also, the pEC50 with HL-60 (Myeloid) (Homo sapiens, 72 h) was 6.67; in [5], 7.85. In “Hygroscopicity”, the hygroscopicity result was “hygroscopic”.

As to `Nc1nc(NC2CC2)c2ncn(CCOCP(=O)(O)O)c2n1` [GS-8369, 9-(2-phosphonylmethoxyethyl)-N^6-cyclopropyl-2,6-diaminopurine], the pEC50 in the data set on U937 (Monocytic) is 5.35; in the data set on CEM (T-lymphoid), 5.65; in the data set on Daudi (B-lymphoid) it was 5.74; in the data set with KG-1 (Myeloid) it was 5.96; with PM-1 (T-lymphoid), 5.17; in data set [4], 5.63. Also, the values for the pEC50 in the data set with Molt 4 (T-lymphoid) and in the data set on HL-60 (Myeloid) were 5.83 and 5.79, respectively. For the same compound, in [6], the “antiproliferative and differentiation-inducing effect” value was “effective”.

These data come from patent US20090258840A1, “METHOD AND COMPOSITIONS FOR TREATING HEMATOLOGICAL MALIGNANCIES” (Gilead Sciences, Inc., priority 2006, published 2009).
